According to article PMC7179167 (Molecules, 2020):
Converted amounts (≈) assume the structure as drawn.

Experiments:
[1] = tested on: P. aeruginosa (ATCC 27853); assay: Disk diffusion antimicrobial test, P. aeruginosa; type: cell-based, Pseudomonas areuginosa; details: Pseudomonas aeruginosa, ATCC27853, Gram-negative, 20 mg per disc (title), concentration 20 µg (footnote)
Experimental: (§1) The newly synthesized compounds were chosen to be evaluated in vitro towards a variety of pathogenic microorganisms; Gram-positive bacteria: S. aureus (ATCC 6538) and B. subtilis (ATCC 6633); Gram-negative bacteria: P. areuginosa (ATCC 27853) and E. coli (DSMZ 1058); yeast: C. albicans (ATCC 10231) and S. cerevisiae (ATCC 9080) and fungi: A. niger (NRRL A-326) using the disk diffusion method at a single dose of 20 µl. The results are shown in Table 1 as the growth inhibition zone (mm).
(§2) The antimicrobial activity of target compounds were evaluated to be in vitro against a variety of pathogenic microorganisms, namely Staphylococcus aureus (ATCC 6538), Bacillus subtilis (ATCC 6633) (Gram-positive bacteria), Pseudomonas areuginosa (ATCC 27853), Escherichia coli (DSMZ 1058) (Gram-negative bacteria), Candida albicans (ATCC 10231), Saccharomyces cerevisiae (ATCC 9080) (Yeast) and Aspergillus niger (NRRL A-326) (Fungi) using the disk diffusion method at a single dose of 20 µg. The microorganisms were served and obtained from the Microbial Biotechnology Department, National Research Center, Giza, Egypt. Amphotericin, amoxicillin and ciprofloxacin were used as reference drugs (Oxoid™ Disks). The tested compounds 11a–c, 12a–c, 13a–i, 14a–i and 15a,b were dissolved in dimethylsulphoxide (DMSO) at a concentration of 1 mg/mL. Aliquots of 20 μl were soaked on filter paper discs (6 mm) and dried at room temperature under sterilized conditions. The paper discs were placed on inoculated agar plats and then incubated for 24 h at 37 °C for bacterial strains and after 48–72 h incubation at 30 °C for fungi. Both bacterial and yeast strains were grown on nutrient agar medium (g/l): beef extract, 3; peptone, 10 and agar, 20 at pH of 7.2. The fungal strain was grown on Czapek-Dox medium (g/l): sucrose, 30; NaNO3, 3; MgSO4.7H2O, 0.5l; KCl, 0.5; FeSO4, 0.01; K2HPO4, 1 and agar, 20 at pH of 6.0.

p53 = p53 ELISA in MCF-7 cells; type: cell-based, human; details: MCF-7 cells treated at IC50 concentration; control 4.18 ± 0.58; mean ± SD
Description: (§3) The promising antiproliferative results reported for compounds 11a, 11b, 12a, 12b and 13c against cell lines under study have prompted us to investigate the mechanism of cell death induced by these compounds. Apoptosis induction was examined in both MCF-7 and HCT-116 cancer cells by assaying the level of its key protein markers, namely: proapoptotic (p53, Bcl 2-associated X, Bax and caspases3) and antiapoptotic (B-cell lymphoma-2, Bcl-2). MCF-7 and HCT-116 cells undergoing apoptosis was detected by use of the ELISA technique. Protein marker levels were quantified according to Bradford assay.
(§4) Briefly, cells ([…] and HCT) were seeded at a concentration of 1.2–1.8 × 10^3 cells/well in 6-well plates. After 48-h treatment, the collected cells were lysed and centrifuged at 10,000 rpm for 20 min at 4 °C. The protein concentration was measured in the supernatant by Bradford protein assay. Volume containing […] of total protein was incubated with […] of caspase substrate in […] of the reaction buffer at 37 °C for 1 h in the dark. Caspase-3 activity was determined by a microplate reader at 405 nm using a caspase-3 colorimetric assay kit (Abcam) according to the manufacturer’s instructions. In vitro protein level quantitative measurement of apoptotic marker p53, Bcl-2-associated X (Bax) and antiapoptotic marker B-cell lymphoma-2 (Bcl-2) in cell lysate were assessed by Enzyme-Linked Immunosorbent Assay Simple Step ELISA® (ab199080, ab119506 and ab171571; Abcam) according to the manufacturer’s instructions.

caspase-3 [2] = assay: Caspase-3 colorimetric assay in MCF-7 cells; type: cell-based, human; details: for Caspase-3 Activity %: MCF-7 cells treated at IC50 concentration, control 10.2 ± 2.84, mean ± SD; for Elevation of active caspase-3 protein levels compared to the control: MCF-7 cells, IC50 concentration
Description: as §3, §4

B. subtilis (ATCC 6633) = assay: Disk diffusion antimicrobial test, B. subtilis; type: cell-based, Bacillus subtilis; details: Bacillus subtilis, ATCC6633, Gram-positive, 20 mg per disc (title), concentration 20 µg (footnote)
Experimental: as §1, §2

caspase-3 [3] = assay: Caspase-3 colorimetric assay in HCT-116 cells; type: cell-based, human; details: HCT-116 cells treated at IC50 concentration; control 13.60 ± 2.45; mean ± SD
Description: as §3, §4

[4] = tested on: S. cerevisiae (ATCC 9080); assay: Disk diffusion antimicrobial test, S. cerevisiae; type: cell-based; details: Saccharomyces cerevisiae, ATCC9080, yeast, 20 mg per disc (title), concentration 20 µg (footnote)
Experimental: as §1, §2

C. albicans (ATCC 10231) = assay: Disk diffusion antimicrobial test, C. albicans; type: cell-based, Candida albicans; details: Candida albicans, ATCC10231, disk diffusion; yeast; 20 mg per disc (title), concentration 20 µg (footnote)
Experimental: as §1, §2

[5] = tested on: normal skin fibroblast cells (BJ-1); assay: MTT cytotoxicity assay, normal skin fibroblast BJ-1; type: cell-based; details: Homo sapiens, 48 h, read-out: Growth Inhibition (%) BJ-1
[6] = tested on: MCF-7 (human breast cancer); assay: MTT cytotoxicity assay, MCF-7; type: cell-based; details: for inhibition at 100 µg/mL: MCF7, 100 µg/ml, 48 h, read-out: Growth Inhibition (%) MCF-7; for IC50: MCF7, 48 h post-treatment
Experimental: MCF-7 (human breast cancer), HCT-116 (human colon cancer) and HepG2 (human liver cancer) cell lines were obtained from Karolinska Institute, Stockholm, Sweden. All cells were maintained in RPMI 1640 medium. The media were supplemented with 10% heat-inactivated fetal bovine serum plus 1% antibiotic-antimycoticmixture (10,000 U/mL of potassium penicillin, 10,000 μg/mL of streptomycin sulfate, 25 μg/mL of amphotericin B and 1% of L glutamine (Biowest, USA)). BJ-1 of a human skin fibroblast derived from normal foreskin was obtained from ATCC® CRL-2522™ as a frozen ampoule with about 1 × 10^6 cells per 1 ml volume. BJ-1 was maintained in MEM with 2 mM of L-glutamine and Earle’s salts medium.
Cell viability was studied using the MTT 3-(4,5-dimethylthiazol-2-yl)-2,5-diphenyl-tetrazolium bromide (Bio Basic Canada Inc. Toronto, Canada) assay [33]. The steps were executed in a sterile laminar air flow cabinet biosafety class II level (Baker, SG403INT; Sanford, ME, USA). All incubations were carried out at 37 °C in a 5% CO2 incubator under a humidified atmosphere of 95% (Sheldon, TC2323; Cornelius, OR, USA). Cells were seeded into 96-well microtiter plastic plates at a concentration of (10^4 cells/well) and allowed to adhere for 24 h. The medium was aspirated and then added to the cells with the test compounds 11a–c, 12a–c, 13a–i, 14a–i and 15a,b at a single dose of 100 μg/mL in DMSO. After incubation of the medium for 48 h, 40 μL of MTT salt (2.5 μg/mL) was added to each well and then incubated for an additional 4 h. To stop the reaction and dissolve any formed formazan crystals, 200 μL of 10% sodium dodecyl sulfate (SDS) were added to each well and incubated overnight at 37 °C. The amount of formazan product was measured at 595 nm with a reference wavelength of 690 nm as a background using a microplate reader (Bio-Rad Laboratories, model 3350, California, USA). For the untreated cells (negative control), the medium was added instead of the tested compounds. […] Dimethylsulfoxide (DMSO) was the vehicle used for dissolution of the testing compound, and its final concentration on the cells was less than 0.2%. At the same dilution, the solvent concentration was the same for all drugs and between the control and drug treatments.

Bax = Bax ELISA in MCF-7 cells; type: cell-based, human; details: MCF-7 cells treated at IC50 concentration; control 39.56 ± 4.56; mean ± SD
Description: as §3, §4

Bcl-2 = Bcl-2 ELISA in HCT-116 cells; type: cell-based, human; details: for Bcl-2 (ng/50 mg Protein): HCT-116 cells treated at IC50 concentration, control 23.56 ± 3.56, mean ± SD; for Reduction of expression level of antiapoptotic protein Bcl-2 compared to the control: HCT-116 cells, IC50 concentration
Description: as §3, §4

Structure (SMILES)	zone of inhibition at 20 µg/disc [1] [mm]	p53 (Pg/50 mg Protein) (p53)	Caspase-3 Activity % (caspase-3 [2]) [%]	Elevation of active caspase-3 protein levels compared to the control (caspase-3 [2])	zone of inhibition at 20 µg/disc (B. subtilis (ATCC 6633)) [mm]	Caspase-3 Activity % (caspase-3 [3]) [%]	zone of inhibition at 20 µg/disc [4] [mm]	zone of inhibition at 20 µg/disc (C. albicans (ATCC 10231)) [mm]	inhibition at 100 µg/mL [5] [%]	inhibition at 100 µg/mL [6] [%]	IC50 [6] [µg/mL]	Bax (pg/50 mg Protein) (Bax)	Bcl-2 (ng/50 mg Protein) (Bcl-2)	Reduction of expression level of antiapoptotic protein Bcl-2 compared to the control (Bcl-2)
COc1c(C2=NNC3(C2)C(=O)Nc2ccccc23)c(O)cc2occc12 (stereo not drawn) [Compound 11a, 5’-(6-Hydroxy-4-methoxy-benzofuran-5-yl)-2’,4’-dihydrospiro(indoline-3,3’-pyrazol)-2-one]	8	14.45 ± 0.82	16.67 ± 0.67	~ 1.6 folds	12	19.12 ± 0.89	16	20	6.2	94.3	21.1 (≈ 60.4 µM)	122.34 ± 3.45	8.2 ± 1.26	~ 66%
COc1cc2occc2c(OC)c1C1=NNC2(C1)C(=O)Nc1ccccc12 (stereo not drawn) [Compound 11b, 5’-(4,6-Dimethoxy-benzofuran-5-yl)-2’,4’-dihydrospiro(indoline-3,3’-pyrazol)-2-one]	12	5.85 ± 0.75	16.19 ± 0.79	~ 1.6 folds	12	14.04 ± 0.54	18	18	10.1	92.3	19.4 (≈ 53.4 µM)	109.35 ± 4.05	7.25 ± 1.45	~76%
COc1c(C2=NNC3(C2)C(=O)Nc2ccccc23)c(O)c(OC)c2occc12 (stereo not drawn) [Compound 12a, 5’-(6-Hydroxy-4,7-dimethoxy-benzofuran-5-yl)-2’,4’-dihydrospiro(indoline-3,3’-pyrazol)-2-one]	18	13.31 ± 1.08	14.18 ± 0.74	~1.4 folds	16	17.43 ± 0.58	10	12	9.1	93.6	20.2 (≈ 53.2 µM)	113.09 ± 1.98	21.13 ± 1.45	
COc1c(C2=NNC3(C2)C(=O)Nc2ccccc23)c(OC)c2ccoc2c1OC (stereo not drawn) [Compound 12b, 5’-(4,6,7-Trimethoxy-benzofuran-5-yl)-2’,4’-dihydrospiro(indoline-3,3’-pyrazol)-2-one]	24	29.58 ± 2.53	47.25 ± 1.89	~4.6 folds	18	33.12 ± 1.37	10	10	5	97.4	16.7 (≈ 42.5 µM)	167.07 ± 4.83	18.87 ± 1.84	
